The subject of one data set is thrombin. The settings on record: Bajusz et al., J. Med. Chem., 33, 1729-1735 (1990); cited from earlier work.
The conditions of data set [1]: early clinical studies, Simoons et al.; cited from earlier work.
Another data set deals with human thrombin (Homo sapiens, UniProt P00734). In words: Human thrombin inhibition (amidase activity, chromogenic substrate; Kass). The conditions noted are these: purified human thrombin, mean over a range of concentrations.
The nature of data set [2]: Index of Bioavailability (plasma thrombin time AUC, oral vs i.v.). The format is in vivo. The settings on record: rats; dose-adjusted AUC of plasma TT time course, p.o. vs i.v. bolus. The source says: Assays are done in duplicate and averaged.
Each sample population represents alternating sequential time points.

The nature of data set [3]: Pharmacokinetic model in dogs, single oral dose. The format is in vivo, dogs (Beagles). The settings on record: single 2 mg/kg oral dose. As for the experimental part:
Male dogs (Beagles; 18 months-2 years; 12-13 kg, Marshall Farms, North Rose, N.Y. 14516) are fasted overnight and fed Purina certified Prescription Diet (Purina Mills, St. Louis, Miss.) 240 minutes after dosing. Water is available ad libitum. The room temperature is maintained between 66°-74° F.; 45-50 percent relative humidity; and lighted from 0600-1800 hours.
Test compound is formulated immediately prior to dosing by dissolving in sterile 0.9 percent saline to a 5 mg/ml preparation. Dogs are given a single 2 mg/kg dose of test compound by oral garage. Blood samples (4.5 ml) are taken from the cephalic vein at 0.25, 0.5, 0.75, 1,2,3,4 and 6 hours after dosing. Samples are collected in citrated Vacutainer tubes and kept on ice prior to reduction to plasma by centrifugation. Plasma samples are derivatized with dinitrophenylhydrazine and analyzed by HPLC (Zorbax SB-C8 column) eluting with methanol/500 mM sodium acetate adjusted to pH7 with phosphoric acid (60:40, v/v). Plasma concentration of test compound is recorded and used to calculate the pharmacokinetic parameters: elimination rate constant, Ke; total clearance, Clt; volume of distribution, VD; time of maximum plasma test compound concentration, Tmax; maximum concentration of test compound of Tmax, Cmax; plasma half-life, t0.5; and area under the curve, A.U.C.; fraction of test compound absorbed, F.

The nature of data set [4]: Template Bleeding Time assay (gingival). Format: in vivo, dog. The conditions noted are these: 0.25, 0.50 and 1.0 mg/kg.hr; over a 240 minute time. The method, then:
Whole blood cell counts, hemoglobin, and hematocrit values are determined on a 40-μl sample of citrated (3.8 percent) blood (1 part citrate:9 parts blood) with a hematology analyzer (Cell-Dyn 900, Sequoia-Turner. Mount View, Calif., U.S.A.). Gingival template bleeding times are determined with a Simplate II bleeding time device (Organon Teknika Durham, N.C., U.S.A.). The device is used to make 2 horizontal incisions in the gingiva of either the upper or lower left jaw of the dog. Each incision is 3 mm wide×2 mm deep. The incisions are made, and a stopwatch is used to determine how long bleeding occurs. A cotton swab is used to soak up the blood as it oozes from the incision. Template bleeding time is the time from incision to stoppage of bleeding. Bleeding times are taken just before administration of test compound (0 min), 60 min into infusion, at conclusion of administration of the test compound (120 min), and at the end of the experiment.
All data are analyzed by one-way analysis of variance (ANOVA) followed by Student-Neuman-Kuels post hoc t test to determine the level of significance. Repeated-measures ANOVA are used to determine significant differences between time points during the experiments. Values are determined to be statistically different at least at the level of p<0.05. All values are mean ±SEM. […]

Usually Cmax stands for the highest concentration seen after dosing. Usually Tmax stands for the time from dosing to the highest level.

Square brackets hold non-standard residues; d marks the D form. Peptide text beside a SMILES is read from it. ξ: configuration not given here. dPip = O=C(O)[C@H]1CCCCN1; dThz = O=C(O)[C@H]1CSCN1; ξAze = O=C(O)C1CCN1

Protocol for human thrombin: Standard curves are constructed by plotting free thrombin concentration against hydrolysis rate. […] The amount of free inhibitor in each assay is calculated by subtracting the number of moles of bound thrombin from the number of moles of added inhibitor (test compound).
Kass is calculated for a range of concentrations of test compounds and the mean value reported in units of liter per mole.

Take `CC(C)(C)OC(=O)N[C@H](Cc1ccccc1)C(=O)N1CCC[C@H]1C(=O)N[C@H](C=O)CCCNC(=N)N` [Boc-D-Phe-Pro-Arg-H]: the “direct inhibition of thrombin” value in the data set on thrombin was “potent direct inhibition of thrombin”.
Consider `N=C(N)NCCC[C@@H](C=O)NC(=O)[C@@H]1CCCN1C(=O)[C@H](N)Cc1ccccc1` [D-Phe-Pro-Arg-H], for which the “direct inhibition of thrombin” value in the data set on thrombin is on record as “potent direct inhibition of thrombin”.
Consider `CN[C@H](Cc1ccccc1)C(=O)N1CCC[C@H]1C(=O)N[C@H](C=O)CCCNC(=N)N.O=S(=O)(O)O` [D-MePhe-Pro-Arg-H sulfate], for which the anticoagulant in man result in data set [1] was “is an anticoagulant in man”.
With `Cl.Cl.N=C(N)NCCC[C@@H](C=O)NC(=O)[C@@H]1CCCN1C(=O)C1NCCCC2CCCCC21` (mixture of isomers) [Example 8, DL-cis-3-aza-bicyclo[5.4.0]undecanyl-2-carbonyl-L-prolinyl-L-arginine aldehyde dihydrochloride], on human thrombin, the “Kass × 10^6 (l/mole)” value is listed as 595 × 10^6 l/mole. Further, the “Percent Relative Activity (Index of Bioavailability)” value in data set [2] is 43%.
As for `Cl.Cl.Cl.N=C(N)NCCC[C@@H](C=O)NC(=O)[C@@H]1CCCN1C(=O)[C@H]1C[C@H](Sc2ccccc2)CN1.O.O.O` [Example 14, trans-4-phenylthio-D-prolinyl-L-prolinyl-L-arginine aldehyde trihydrochloride trihydrate], on human thrombin, the “Kass × 10^6 (l/mole)” value is listed as 37 × 10^6 l/mole.
`Cl.Cl.N=C(N)NCCC[C@@H](C=O)NC(=O)[C@@H]1CCCN1C(=O)C1CNCCN1` (stereo partly drawn) [Example 9, D,L-Piperazin-2-oyl-L-Prolinyl-L-Arginine Aldehyde Dihydrochloride]: at human thrombin, the “Kass × 10^6 (l/mole)” value is on record as 121 × 10^6 l/mole. The “Percent Relative Activity (Index of Bioavailability)” value in data set [2] is listed as 19%.
For `Cl.Cl.Cl.N=C(N)NCCC[C@@H](C=O)NC(=O)[C@@H]1CCCN1C(=O)[C@H]1C[C@@H](Oc2ccccc2)CN1.O` (relative stereo) [Example 12, D-Cis-(4-phenoxy) Prolinyl-L-Prolinyl-L-Arginine Aldehyde Trihydrochloride Monohydrate], the “Kass × 10^6 (l/mole)” value on human thrombin is listed as 25 × 10^6 l/mole. In addition, the “Percent Relative Activity (Index of Bioavailability)” value in data set [2] amounted to 16%.
On to `CC(C)C1N[C@@H](C(=O)N2CCC[C@H]2C(=O)N[C@H](C=O)CCCNC(=N)N)C(C)(C)S1.Cl.Cl` (stereo partly drawn) [Example 5, D-2-Isopropyl-5,5-Dimethylthiazolidinyl-4-Carbonyl-L-Prolinyl-L-Arginine Aldehyde Dihydrochloride], for which the “Kass × 10^6 (l/mole)” value at human thrombin was 4 × 10^6 l/mole.
Consider “D-Prolinyl-L-Prolinyl-L-Arginine Aldehyde Dihydrochloride [Example 2]”, for which, at human thrombin, the “Kass × 10^6 (l/mole)” value is reported as 12 × 10^6 l/mole. Moreover, the “Percent Relative Activity (Index of Bioavailability)” value in data set [2] is recorded as 36%.
As for `CN[C@H](Cc1ccccc1)C(=O)N1CCC[C@H]1C(=O)N[C@H](C=O)CCCNC(=N)N` [D-MePhe-Pro-Arg-H], the “direct inhibition of thrombin” value with thrombin is listed as “potent direct inhibition of thrombin”.
Turning to `Cl.Cl.N=C(N)NCCC[C@@H](C=O)NC(=O)[C@@H]1CCCN1C(=O)[C@H]1CSCN1` [Example 4, D-Thiazolidinyl-4-Carbonyl-L-Prolinyl-L-Arginine Aldehyde Dihydrochloride] (H-[dThz]-Pro-Arg-aldehyde), the “Kass × 10^6 (l/mole)” value at human thrombin is recorded as 5 × 10^6 l/mole. Further, the “Percent Relative Activity (Index of Bioavailability)” value in data set [2] came to 16%.
The like results for `Cl.Cl.N=C(N)NCCC[C@@H](C=O)NC(=O)[C@@H]1CCCN1C(=O)C1NCCS1` (stereo partly drawn) [Example 10, D,L-Thiazolidinyl-2-carbonyl-L-prolinyl-L-arginine aldehyde dihydrochloride] were, in that order, 27 × 10^6 l/mole and 5%.
As to `Cl.Cl.N=C(N)NCCC[C@@H](C=O)NC(=O)[C@@H]1CCCN1C(=O)[C@H]1CCCCN1` [Example 1, D-Homoprolinyl-L-Prolinyl-L-Arginine Aldehyde Dihydrochloride] (H-[dPip]-Pro-Arg-aldehyde), in data set [3], the A.U.C. o-infinity is 4651 ng·h/mL, the maximum concentration (Cmax) amounted to 1676 ng/mL, the “Ke (elimination rate constant)” value stood at 0.0104 min⁻¹ and the Tmax was 1 to 2 h. In addition, in data set [3], the “VD/F (volume of distribution)” value is listed as 0.729 L/kg and the “t0.5 (plasma half-life)” value came to 1.12 h. The “Kass × 10^6 (l/mole)” value on human thrombin is recorded as 46 × 10^6 l/mole. The “Percent Relative Activity (Index of Bioavailability)” value in data set [2] was determined as 38%. The “effect on template bleeding time” value in data set [4] is recorded as “no significant effect on template bleeding time”.
For the molecule `Cl.Cl.Cl.N=C(N)NCCC[C@@H](C=O)NC(=O)[C@@H]1CCCN1C(=O)[C@H]1C[C@H](Oc2ccc3ccccc3c2)CN1.O` [Example 6, trans-4-(2-Naphthyloxy)-D-Prolinyl-L-Prolinyl-L-Arginine Aldehyde Trihydrochloride Monohydrate], the “Kass × 10^6 (l/mole)” value at human thrombin is listed as 21 × 10^6 l/mole.
Consider `Cl.Cl.N=C(N)NCCC[C@@H](C=O)NC(=O)C1CCN1C(=O)[C@H]1CCCCN1` (stereo partly drawn) [Example 3, D-Homoprolinyl-L-Azetidinyl-L-Arginine Aldehyde Dihydrochloride] (H-[dPip]-[ξAze]-Arg-aldehyde), for which, at human thrombin, the “Kass × 10^6 (l/mole)” value is reported as 45 × 10^6 l/mole. Besides, in data set [2], the “Percent Relative Activity (Index of Bioavailability)” value is on record as 32%.

The values above are taken from patent US5578574A, “Antithrombotic agents” (Eli Lilly and Company, priority 1995, dated 1996).
